≈ marks a conversion by molar mass, not a printed value. Read-outs that look alike come from different tables or passages of the source.
How the values were obtained:
[1] = tested on: HIV-1/TIBO R82150 (100-Ile); test: Sensitivity of mutant HIV-1 strain in CEM cell cultures; assay type: cell-based; conditions: Human immunodeficiency virus 1, CCRF-CEM; CEM cells, Table 1; read-out: 50% Effective Concentration
How it was run: (§1)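 Syncytium formation read out after 4 days at 37° C. Cultures: CEM cells, 250,000/ml, infected at 100 50% cell culture infective doses/ml and added to compound dilutions.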

[2] = tested on: HIV-1/V(0.5) 103-Asn; test: as above; assay type: cell-based; conditions: Human immunodeficiency virus 1, CCRF-CEM; Table 5; read-out: EC50
How it was run: as §1

[3] = tested on: HIV-1/TSAO-m^3 T (138-Lys); test: as above; assay type: cell-based; conditions: Human immunodeficiency virus 1, CCRF-CEM; CEM cells, Table 1; read-out: 50% Effective Concentration
How it was run: as §1

[4] = tested on: HIV-1/TIBO R82913 (103-Asn); test: as above; assay type: cell-based; conditions: Human immunodeficiency virus 1, CCRF-CEM; CEM cells, Table 1; read-out: 50% Effective Concentration
How it was run: as §1

[5] = tested on: HIV-1/IV(0.1) 103-Thr; test: as above; assay type: cell-based; conditions: Human immunodeficiency virus 1, CCRF-CEM; Table 5; read-out: EC50
How it was run: as §1

[6] = tested on: HIV-1/Pyr (181-Cys); test: as above; assay type: cell-based; conditions: Human immunodeficiency virus 1, CCRF-CEM; CEM cells, Table 1; read-out: 50% Effective Concentration
How it was run: as §1

[7] = tested on: HIV-1/I(0.1) 103-Asn; test: as above; assay type: cell-based; conditions: Human immunodeficiency virus 1, CCRF-CEM; Table 5; read-out: EC50
How it was run: as §1

[8] = tested on: HIV-1/III(0.1) 103-Asn; test: as above; assay type: cell-based; conditions: Human immunodeficiency virus 1, CCRF-CEM; Table 5; read-out: EC50
How it was run: as §1

[9] = tested on: HIV-1/II(0.1) 100-Ile; test: as above; assay type: cell-based; conditions: Human immunodeficiency virus 1, CCRF-CEM; Table 5; read-out: EC50
How it was run: as §1

[10] = tested on: HIV-1/V(0.1) 101-Ile + 141-Glu; test: as above; assay type: cell-based; conditions: Human immunodeficiency virus 1, CCRF-CEM; Table 5; read-out: EC50
How it was run: as §1

[11] = tested on: HIV-1/Nev (106-Ala); test: as above; assay type: cell-based; conditions: Human immunodeficiency virus 1, CCRF-CEM; CEM cells, Table 1; read-out: 50% Effective Concentration
How it was run: as §1

[12] = tested on: HIV-1(IIIB); test: Knock-out concentrations: breakthrough of HIV-1(IIIB)-induced cytopathicity in CEM cell cultures; assay type: cell-based; conditions: for activity at 0.1 µg/mL / activity at 0.5 µg/mL / activity at 2.5 µg/mL: Human immunodeficiency virus 1, IIIB, CCRF-CEM, read-out: HIV-1-induced cytopathicity in cell culture; for activity at 0.1 µg/mL: 0.1 μg/ml; for activity at 0.5 µg/mL: 0.5 μg/ml; for activity at 2.5 µg/mL: 2.5 μg/ml
How it was run: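 CEM cells in RPMI 1640 with 10% FBS infected with HIV-1(IIIB) at ~1000× CCID50, subcultured every 3–4 days into fresh uninfected cells with drug held constant for 10 subcultivations (35 days), then ≥5 drug-free passages. Breakthrough scored by syncytium formation. Combinations used the two lowest single-drug starting concentrations.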

[13] = molecular target: HIV-1 RT (WT) (Human immunodeficiency virus type 1 group M subtype B, UniProt P03366); test: biochemical
How it was run: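 Recombinant HIV-1 RT incubated 30 min at 37° C with poly(C).oligo(dG) (0.1 mM) and [³H]dGTP (2.95 μM) in Tris pH 7.8 with 5 mM MgCl2, 150 mM KCl, DTT, glutathione, Triton X-100; 5-fold compound dilutions. Acid-insoluble radioactivity counted after TCA/pyrophosphate precipitation.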

[14] = tested on: HIV-1(IIIB) (WT); test: microbe, parasite or virus in culture; assay type: cell-based; conditions: Human immunodeficiency virus 1, IIIB, CCRF-CEM
How it was run: as §1

[15] = 936 h, day 39 post infection, compound absent from day 35
[16] = 1008 h, day 42 post infection, compound absent from day 35
[17] = 1104 h, day 46 post infection, compound absent from day 35
[18] = 1176 h, day 49 post infection, compound absent from day 35
[19] = 1272 h, day 53 post infection, compound absent from day 35

Cc1occc1C(=S)Nc1ccc(Cl)c(C(=O)OC2CCCC2)c1 [Compound IV]
EC50 [1]: 0.17 µg/mL (≈ 0.467 µM)
EC50 [2]: 0.65 µg/mL (≈ 1.79 µM)
EC50 [3]: 0.035 µg/mL (≈ 0.0962 µM)
EC50 [4]: 0.7 µg/mL (≈ 1.92 µM)
EC50 [5]: 0.53 µg/mL (≈ 1.46 µM)
EC50 [6]: 0.045 µg/mL (≈ 0.124 µM)
EC50 [7]: 0.2 µg/mL (≈ 0.55 µM)
EC50 [8]: 0.14 µg/mL (≈ 0.385 µM)
EC50 [9]: 0.4 µg/mL (≈ 1.1 µM)
EC50 [10]: 0.11 µg/mL (≈ 0.302 µM)
EC50 [11]: 0.04 µg/mL (≈ 0.11 µM)
prevention of virus breakthrough, fold more efficient than BHAP [12]: at least 5 fold
prevention of virus breakthrough, fold more efficient than nevirapine [12]: ≥ 25 fold
activity at 0.1 µg/mL ([12]; 96 h, day 4 post infection): 0%
activity at 0.5 µg/mL ([12]; 96 h, day 4 post infection): 0%
activity at 2.5 µg/mL ([12]; 96 h, day 4 post infection): 0%
activity at 0.1 µg/mL ([12]; 192 h, day 8 post infection): 0%
activity at 0.5 µg/mL ([12]; 192 h, day 8 post infection): 0%
activity at 2.5 µg/mL ([12]; 192 h, day 8 post infection): 0%
activity at 0.1 µg/mL ([12]; 264 h, day 11 post infection): 0%
activity at 0.5 µg/mL ([12]; 264 h, day 11 post infection): 0%
activity at 2.5 µg/mL ([12]; 264 h, day 11 post infection): 0%
activity at 0.1 µg/mL ([12]; 336 h, day 14 post infection): 6.2%
activity at 0.5 µg/mL ([12]; 336 h, day 14 post infection): 0%
activity at 2.5 µg/mL ([12]; 336 h, day 14 post infection): 0%
activity at 0.1 µg/mL ([12]; 408 h, day 17 post infection): 25%
activity at 0.5 µg/mL ([12]; 408 h, day 17 post infection): 0%
activity at 2.5 µg/mL ([12]; 408 h, day 17 post infection): 0%
activity at 0.1 µg/mL ([12]; 504 h, day 21 post infection): 87.5%
activity at 0.5 µg/mL ([12]; 504 h, day 21 post infection): 0%
activity at 2.5 µg/mL ([12]; 504 h, day 21 post infection): 0%
activity at 0.1 µg/mL ([12]; 600 h, day 25 post infection): 100%
activity at 0.5 µg/mL ([12]; 600 h, day 25 post infection): 0%
activity at 2.5 µg/mL ([12]; 600 h, day 25 post infection): 0%
activity at 0.1 µg/mL ([12]; 672 h, day 28 post infection): 100%
activity at 0.5 µg/mL ([12]; 672 h, day 28 post infection): 0%
activity at 2.5 µg/mL ([12]; 672 h, day 28 post infection): 0%
activity at 0.1 µg/mL ([12]; 768 h, day 32 post infection): 100%
activity at 0.5 µg/mL ([12]; 768 h, day 32 post infection): 0%
activity at 2.5 µg/mL ([12]; 768 h, day 32 post infection): 0%
activity at 0.1 µg/mL ([12]; 840 h, day 35 post infection): 100%
activity at 0.5 µg/mL ([12]; 840 h, day 35 post infection): 0%
activity at 2.5 µg/mL ([12]; 840 h, day 35 post infection): 0%
activity at 0.1 µg/mL [12, 15]: 100%
activity at 0.5 µg/mL [12, 15]: 0%
activity at 2.5 µg/mL [12, 15]: 0%
activity at 0.1 µg/mL [12, 16]: 100%
activity at 0.5 µg/mL [12, 16]: 0%
activity at 2.5 µg/mL [12, 16]: 0%
activity at 0.1 µg/mL [12, 17]: 100%
activity at 0.5 µg/mL [12, 17]: 0%
activity at 2.5 µg/mL [12, 17]: 0%
activity at 0.1 µg/mL [12, 18]: 100%
activity at 0.5 µg/mL [12, 18]: 0%
activity at 2.5 µg/mL [12, 18]: 0%
activity at 0.1 µg/mL [12, 19]: 100%
activity at 0.5 µg/mL [12, 19]: 0%
activity at 2.5 µg/mL [12, 19]: 0%
concentration at which virus emerged (virus breakthrough) ([12]; tested at 0.1, 0.5 and 2.5 μg/ml, 35 days): 0.1 µg/mL
IC50 ([13]; range stated for the compounds together, poly(C).oligo(dG), 2.95 μM [2,8-3H]dGTP, read-out: IC50 on recombinant HIV-1 RT): 49.5 to 212 nM
IC50 ([13]; substrate [2,8-3H]dGTP 2.95 μM, template poly(rC)oligo(dG), read-out: IC50, anti-HIV-1 RT (WT) activity (converted)): 49.5 nM
EC50 ([14]; CEM cells, Table 1, read-out: 50% Effective Concentration): 5 ng/mL (≈ 0.0137 µM)
EC50 ([14]; HIV-1 (III8), Table 5, read-out: EC50): 5 ng/mL (≈ 0.0137 µM)
IC50 ([14]; range stated for Compounds I-V together, read-out: 50% inhibitory concentration, HIV-1(IIIB) replication in CEM cells): 0.004 to 0.05 µg/mL (≈ 0.011 to 0.137 µM)

Reference: patent US5968910A, “Compositions containing two or three inhibitors of different HIV reverse transcriptases” (priority 1994, dated 1999)
